This is an account of results in PMC3477139 (PLoS ONE, 2012).

A value given as a limit tells only on which side of the number the result lay.

Series [1] deals with adenylyl cyclase. As to the kind of experiment: cAMP generation by direct activation of adenylyl cyclase with forskolin. It counts as biochemical. As to conditions: membranes from HEK-GLP-1R cells, 5 min, 30°C, IBMX. On the procedure: Generation of cAMP by cell membranes was determined based on previously published methods, [21]. Membranes were prepared from confluent cell monolayers grown in 80 cm^2 flasks. Cells were washed with 5 ml HBS (154 mM NaCl, 10 mM HEPES, pH 7.4, 37°C), detached using harvesting buffer (154 mM NaCl, 10 mM HEPES, 5.4 mM EDTA, pH 7.4, 37°C) and collected by centrifugation (200 g, 2 min, 4°C). The cell pellet was resuspended in 1 ml of homogenization buffer (10 mM HEPES, 10 mM EDTA, pH 7.4) and sonicated (Sonifier Ultrasonic Cell Disruptor; Branson, CT) at 30% of the maximal amplitude for 3×5 s at ∼30 s intervals before centrifugation (30,000 g, 4°C, 10 min). After removal of the supernatant, pellets were collected in resuspension buffer (10 mM HEPES, 0.1 mM EDTA, pH 7.4), protein concentration adjusted to 1 mg/ml and stored in aliquots at −80°C until assay. Generation of cAMP was determined in 100 µl containing: 10 mM HEPES, 12 mM MgCl2, 60 mM NaCl, 1.2 mM EDTA, 1.2% w/v BSA, 5% DMSO, 480 µM ATP, 2 mM IBMX, 10 µM GTP, 20 µg membrane and ligands as indicated. […]
(§1) The cAMP was extracted from either intact cell or membrane preparations using a method identical to that for extraction of Ins(1,4,5)P3 [22]. Levels of cAMP were then determined by a competitive radioreceptor assay using binding protein purified from bovine adrenal glands and related to cellular protein assessed by Bradford assay.

Series [2] addresses GLP-1 7-36 amide 7-36 (Homo sapiens) (UniProt P01275). Conditions: cited from earlier work.
Series [3] has as its system β2-adrenoceptors. As to the kind of experiment: cAMP accumulation via β2-adrenoceptors in HEK-GLP-1R cells. It counts as cell-based. As to conditions: isoproterenol 100 µM, IBMX, 5% DMSO. As to the method: Ligands or vehicle control (40 µl) were added and reactions terminated after the appropriate times by replacement of the aqueous phase with ice-cold 0.5 M trichloroacetic acid. […] Reactions were terminated as above.
as §1
All data are mean±/+s.e.m., n = 3–4, *** P<0.001 and ** P<0.01 by Bonferroni's multiple range test. For clarity only differences between ‘numerical’ and ‘co-addition’ conditions are shown.
(In general: Cyclic AMP is a second messenger, typically raised through Gs and lowered through Gi signalling.)

Series [4] relates to GLP-1R. Conditions: ref [9]; cited from earlier work. An excerpt: (§2) Such proteolysis is thought to remove biological activity.
The conditions of series [5]: in vivo, cited from earlier work.
From the text: as §2

The target in series [6] is T1, human GLP-1R (Homo sapiens, UniProt P43220).
T1 construct: expressed in transfected cells; vector pcDNA5/FRT
T1 sequence (P43220 24-463): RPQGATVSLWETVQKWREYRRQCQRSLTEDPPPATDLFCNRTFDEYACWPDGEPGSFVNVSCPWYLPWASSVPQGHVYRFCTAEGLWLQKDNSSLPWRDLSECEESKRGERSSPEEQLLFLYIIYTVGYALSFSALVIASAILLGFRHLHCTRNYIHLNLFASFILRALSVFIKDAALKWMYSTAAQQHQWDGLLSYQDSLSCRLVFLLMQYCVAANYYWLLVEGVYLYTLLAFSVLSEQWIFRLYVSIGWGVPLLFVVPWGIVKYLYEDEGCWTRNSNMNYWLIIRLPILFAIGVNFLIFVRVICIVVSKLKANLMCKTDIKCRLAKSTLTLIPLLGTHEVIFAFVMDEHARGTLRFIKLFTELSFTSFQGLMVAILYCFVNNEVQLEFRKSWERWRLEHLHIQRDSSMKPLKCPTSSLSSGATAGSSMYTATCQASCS
Put plainly: cAMP generation by membranes from HEK-GLP-1R cells. Conditions: read-out: Emax as % of the GLP-1 7–36 amide response, cAMP (membranes); 5 min, 30°C, IBMX. The class given is biochemical. As to the method: as §1
(§3) Concentration-response curves were fitted using GraphPad Prism (GraphPad Software Inc., CA) using a standard four parameter logistic equation. All data are representative of n≥3 or are presented as mean+/±s.e.m., where n = 3 unless otherwise stated. Statistical analysis was by oneway ANOVA and where P<0.05, followed by Bonferroni's or Dunnett's multiple range test as indicated. Alternatively analysis was performed by Student's t-test. Where potency estimates are given these are pEC50 values (−log10 of the molar concentration giving 50% of the maximal response).

In series [7] the target is T2, GLP-1R (native, rat insulinoma cell line INS-1E) (Rattus norvegicus, UniProt P32301).
T2 construct: the rat insulinoma cell line, INS-1E, with native expression of the GLP-1R; endogenous in cells; host or cells: INS-1E rat insulinoma cells (gift of Prof. C.B. Wollheim)
T2 sequence (P32301 22-463): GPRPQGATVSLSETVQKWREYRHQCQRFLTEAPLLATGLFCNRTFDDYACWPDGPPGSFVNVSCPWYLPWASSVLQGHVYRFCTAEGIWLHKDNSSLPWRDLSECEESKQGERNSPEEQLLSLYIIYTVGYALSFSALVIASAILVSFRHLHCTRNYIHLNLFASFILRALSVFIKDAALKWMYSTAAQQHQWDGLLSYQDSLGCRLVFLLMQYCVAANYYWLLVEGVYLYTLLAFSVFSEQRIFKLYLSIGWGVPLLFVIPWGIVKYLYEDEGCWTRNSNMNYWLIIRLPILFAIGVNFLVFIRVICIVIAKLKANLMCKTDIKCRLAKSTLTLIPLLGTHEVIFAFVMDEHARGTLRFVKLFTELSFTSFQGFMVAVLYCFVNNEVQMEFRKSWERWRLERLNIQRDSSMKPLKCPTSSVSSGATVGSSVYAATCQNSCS
Put plainly: cAMP generation in INS-1E cells. The class given is cell-based. As to conditions: INS-1E, read-out: Emax as % of that evoked by GLP-1 7–36 amide, cAMP (INS-1E), in the presence of compound 2. On the procedure:
(§4) HEK-Flp-In cells with stable recombinant expression of the human GLP-1R (HEK-GLP-1R) were cultured in DMEM with high glucose supplemented with 10% FBS, 100 µg/ml streptomycin and 100 units/ml penicillin sulphate. These cells were originally generated by transfection of HEK-Flp-In cells (Invitrogen: Paisley, U.K.) with pcDNA5/FRT containing the human GLP-1R. […] INS-1E cells were kindly provided by Prof. C.B. Wollheim of the University of Geneva, Switzerland [19]. These cells were used between passages 65–90 and cultured in RPMI media containing 11.1 mM glucose, 5% heat-inactivated FBS, 100 µg/ml streptomycin, 100 units/ml penicillin sulphate, 100 units/ml neomycin, 50 µM β-mercaptoethanol, 10 mM HEPES and 1 mM sodium pyruvate. All cells were cultured at 37°C in a 5% CO2 humidified atmosphere and passaged at confluence.
(§5) Confluent monolayers of HEK-GLP-1R cells cultured in 24-well plates pre-coated with poly-D-lysine (0.1% w/v) where washed twice with 0.5 ml Krebs-HEPES buffer (KHB, composition: 10 mM HEPES; 4.2 mM NaHCO3; 11.7 mM D-glucose; 1.18 mM MgSO4·7H2O; 1.18 mM KH2PO4; 4.69 mM KCl; 118 mM NaCl; 1.3 mM CaCl2·2H2O; pH 7.4) containing 0.1% (w/v) BSA (KHB-BSA) before incubation (10 min, 37°C) in 360 µl KHB-BSA containing 500 µM isobutylmethylxanthine (IBMX). Ligands or vehicle control (40 µl) were added and reactions terminated after the appropriate times by replacement of the aqueous phase with ice-cold 0.5 M trichloroacetic acid. INS-1E cells grown to confluence in 24-well plates were treated similarly with the exception that after washing in KHB, cells were incubated in 200 µl KHB-BSA containing 1.4 mM glucose without IBMX for 2 h followed by challenge with ligands (or vehicle) for 15 min at 37°C in 400 µl KHB-BSA, in the presence of 10 mM glucose and 500 µM IBMX. Reactions were terminated as above.
as §1, §3

Series [8] concerns the target T1, human GLP-1R. Put plainly: cAMP generation in intact HEK-GLP-1R cells. Conditions: IBMX; for EC50: pEC50 of the GLP-1 9–36 amide response (cAMP), 15 min, mean±s.e.m., n = 4. It counts as cell-based. As to the method: as §4, §5, §1, §3
Series [9] addresses T1, human GLP-1R. Put plainly: ERK activation (phospho-ERK Western blot) in HEK-GLP-1R cells. It counts as cell-based. Conditions: GLP-1 9–36 amide (1 µM) + compound 2 (0.1 µM to 1 µM), 5 min; n = 3. On the procedure:
as §3

Series [10] relates to GLP-1R. As to conditions: intact GLP-1; ref [16], [18], [30], [40]; cited from earlier work.
Series [11] relates to type 2 diabetes. Conditions: exogenous GLP-1; ref [11]; cited from earlier work. An excerpt: GLP-1 is generated within intestinal L-cells by the a ...

GLP-1 7-36 amide 7-36 (Homo sapiens), sequence (P01275 7-36): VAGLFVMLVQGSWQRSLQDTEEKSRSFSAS
GLP-1R, sequence (P43220 24-463): as the sequence (P43220 24-463) above

In the case of `C=C[C@@]1(C)CC(=O)[C@]2(O)[C@@]3(C)[C@@H](O)CCC(C)(C)[C@@H]3[C@H](O)[C@H](OC(C)=O)[C@@]2(C)O1` [forskolin], the “cAMP generation by forskolin (in words)” value in series [1] is reported as “robustly increased cAMP generation”.
In general, Kd refers to the constant that tells how readily two partners part at equilibrium. On to GLP-1R (from UniProt P43220), for which the Kd in [2] is 1 nM.
For `CC(C)NCC(O)c1ccc(O)c(O)c1` (stereo not shown) [isoproterenol], in series [3], the “cAMP accumulation (in words)” value is “stimulation of cAMP accumulation”.
Take “GLP-1 7–37: generated from proglucagon by prohormone convertase 1/3”: the “relative potency at the GLP-1R” value in series [4] was “essentially equipotent”. In [5], the fasting plasma concentration was less than 10 pM and the “plasma concentration following a meal” value is roughly 10 pM.
As a reminder, the Emax is the greatest response seen or fitted, relative to the assay's reference. As a reminder, the EC50 is the concentration at which the effect is half-maximal. Higher therefore signals a less potent agent. As to `CC[C@H](C)[C@H](NC(=O)[C@H](Cc1ccccc1)NC(=O)[C@H](CCC(=O)O)NC(=O)[C@H](CCCCN)NC(=O)[C@H](C)NC(=O)[C@H](C)NC(=O)[C@H](CCC(N)=O)NC(=O)CNC(=O)[C@H](CCC(=O)O)NC(=O)[C@H](CC(C)C)NC(=O)[C@H](Cc1ccc(O)cc1)NC(=O)[C@H](CO)NC(=O)[C@H](CO)NC(=O)[C@@H](NC(=O)[C@H](CC(=O)O)NC(=O)[C@H](CO)NC(=O)[C@@H](NC(=O)[C@H](Cc1ccccc1)NC(=O)[C@@H](NC(=O)CNC(=O)[C@@H](N)CCC(=O)O)[C@@H](C)O)[C@@H](C)O)C(C)C)C(=O)N[C@@H](C)C(=O)N[C@@H](Cc1c[nH]c2ccccc12)C(=O)N[C@@H](CC(C)C)C(=O)N[C@H](C(=O)N[C@@H](CCCCN)C(=O)NCC(=O)N[C@@H](CCCNC(=N)N)C(N)=O)C(C)C` [GLP-1 9–36 amide, Glucagon-like peptide-1 9–36 amide], the maximal response (Emax) is 23% in [6]; roughly 50% in series [7]; 18% in series [8] (read-out: Emax as % of the GLP-1 7–36 amide response, cAMP, no pretreatment, 15 min challenge). The concentration for a half-maximal effect (EC50) in series [8] (compound 2: 0 µM) is 309 nM; in series [8] (compound 2: 0.03 µM), 85.1 nM; in [8] (compound 2: 0.1 µM, ** P<0.01 versus 0 µM compound 2), 32.4 nM; in series [8] (compound 2: 0.3 µM, *** P<0.001 versus 0 µM compound 2) it was 8.91 nM; in [8] (compound 2: 1.0 µM, *** P<0.001 versus 0 µM compound 2) it was 5.25 nM; in [8] (compound 2: 3.0 µM, *** P<0.001 versus 0 µM compound 2) it was 3.89 nM. Besides, in series [9], the “ERK activation in excess of the sum of the responses to the ligands alone” value is 45–69%. Besides, in series [5] (po), the “peak plasma level, oral glucose tolerance test” value is reported as roughly 60 pM.
On to Glucagon-like peptide-1 [GLP-1], for which the “affinity at the GLP-1R” value in series [10] is “nanomolar to sub-nanomolar affinity”. Moreover, the “effect on insulin secretion and hyperglycaemia in type 2 diabetes” value in series [11] was “potentiates glucose-dependent insulin secretion and can normalize hyperglycaemia in type 2 diabetes”.
